{"source": "the CATMoS acute toxicity set (Mansouri et al. 2021)", "note": "Several values for one entry are separate records, joined by “and”; a condition that tells them apart may be missing. Equal entries are not always repeated.", "data": [{"assay": "rat acute oral toxicity", "settings": "in vivo", "from_the_text": "[…]The data set underlying the modeling effort for this project was initially compiled by NICEATM and U.S. EPA’s CCTE. Briefly, LD50 data were collected from rat acute oral systemic toxicity tests, including limit tests, ranges/confidence intervals, and discrete LD50 values. The full data set included 21,200 LD50 entries for 15,688 substances. […] Data were reviewed to ensure that LD50 values with obvious errors in the extracted data such as unit conversion errors (e.g., comma and decimal separator misplacements) were either fixed or removed. After this review, 16,209 LD50 values remained. Many of the chemicals represented had multiple LD50 entries, requiring that a single representative value per Chemical Abstracts Service Registry Number (CASRN) identifier be defined to facilitate modeling efforts. Based on ATWG feedback and to define the representative LD50 as a protective value while accounting for the distribution across multiple LD50s, the median of the lowest quartile was computed using only discrete LD50 values (omitting limit test data and range and confidence interval data). A detailed summary of the data compilation is available online on the NICEATM webpage dedicated to the collaborative modeling project (NTP 2020).\n[…][…] For categorical designations, limit test and range/confidence interval LD50 data were integrated wherever possible. As such, the number of chemicals with end point values/calls varies across the modeling end points (Table 3) based on whether chemicals had representative LD50 values and/or other data. If a chemical had both, the representative value was used to determine categorical calls rather than limit test data. Some data were useable only for certain end points and categories depending on the thresholds. For example, ranges that spanned multiple hazard categories were considered only for the binary (very toxic/nontoxic) end points and omitted from rendering a determination for hazard category assignment.\n[…]The final data set comprising 11,992 chemicals was split into training and evaluation sets […], respectively. This process was performed semirandomly by ordering chemicals based on the five end points (categorical and continuous LD50 values) and partitioning every fourth record into the evaluation set accordingly. This approach was taken to ensure an equivalent distribution of the LD50 values and the different hazard categories between the training and the evaluation sets without supervised sampling of the chemicals based on structures (Figure 1A). The sources of the chemical structures were also kept equivalent between the two sets, with chemical structures obtained from DSSTox, being the highest quality, representing over 75% of each set (Figure 1B).", "values": [{"smiles": "CCOP(=S)(OCC)Oc1cc(C)nc(C(C)C)n1", "LD50": "92 mg/kg"}, {"smiles": "CCCNCCC", "LD50": "300 mg/kg"}, {"smiles": "COC(=O)CC(C)=O", "LD50": "2580 mg/kg"}, {"smiles": "Cc1ccccc1NC(=N)NC(=N)N", "LD50": "800 mg/kg"}, {"smiles": "COc1ccc2c(c1)c(CC(=O)O)c(C)n2C(=O)c1ccc(Cl)cc1", "LD50": "2.42 mg/kg"}, {"smiles": "CCNCC", "LD50": "540 mg/kg"}, {"smiles": "CCCCCOC(C)=O", "LD50": "6500 mg/kg"}, {"smiles": "O=C1C2(Cl)C3(Cl)C4(Cl)C(Cl)(Cl)C5(Cl)C3(Cl)C1(Cl)C5(Cl)C24Cl", "note": "(centres undefined)", "LD50": "91.3 mg/kg"}, {"smiles": "CC(C)(C)CC(C)(C)c1ccc(O)cc1", "LD50": "4040 mg/kg"}, {"smiles": "CCCC(C)=O", "LD50": "1600 mg/kg"}, {"smiles": "C=CC1CC=CCC1", "note": "(centres undefined)", "LD50": "1600 mg/kg"}, {"smiles": "CN1CCC[C@H]1c1cccnc1", "LD50": "51.2 mg/kg"}, {"smiles": "NC(=O)/C(=C\\c1ccc([N+](=O)[O-])o1)c1ccco1", "LD50": "340 mg/kg"}, {"smiles": "CCOc1ccc2c(c1)C(C)=CC(C)(C)N2", "LD50": "800 mg/kg"}, {"smiles": "CN=C=O", "LD50": "51.5 mg/kg"}, {"smiles": "CCN(CC)c1nc(C)cc(OP(=S)(OC)OC)n1", "LD50": "1250 mg/kg"}, {"smiles": "ClCCl", "LD50": "1500 mg/kg"}, {"smiles": "CC1CCC(CO)CC1", "note": "(centres undefined)", "LD50": "707 mg/kg"}, {"smiles": "c1cc[n+]2c(c1)-c1cccc[n+]1CC2", "LD50": "220 mg/kg and 120 mg/kg"}, {"smiles": "O=Cc1ccccc1", "LD50": "1300 mg/kg"}, {"smiles": "CC1(C)C(C(=O)OC(C#N)c2cccc(Oc3ccccc3)c2)C1(C)C", "note": "(centres undefined)", "LD50": "66.7 mg/kg"}, {"smiles": "CCCCCCCCCCCCCCCCCC[N+](C)(C)CCCCCCCCCCCCCCCCCC", "LD50": "11300 mg/kg"}, {"smiles": "CCOc1ccc(NC(C)=O)cc1", "LD50": "1650 mg/kg"}, {"smiles": "COP(=S)(Oc1cc(Cl)c(Br)cc1Cl)c1ccccc1", "note": "(centres undefined)", "LD50": "19 mg/kg"}, {"smiles": "CCOP(=O)(N=C1SCC(C)S1)OCC", "note": "(centres undefined)", "LD50": "8.9 mg/kg"}, {"smiles": "O=C(OCCOCCOC(=O)c1ccccc1)c1ccccc1", "LD50": "2830 mg/kg"}, {"smiles": "OCCOCCOCCOCCO", "LD50": "32700 mg/kg"}, {"smiles": "OCCCCO", "LD50": "1350 mg/kg"}, {"smiles": "CCCOCC(C)OCC(C)O", "note": "(centres undefined)", "LD50": "1500 mg/kg"}, {"smiles": "COC(=O)c1ccccc1O", "LD50": "887 mg/kg"}, {"smiles": "CCOC(=O)C(Cl)C(C)=O", "note": "(centres undefined)", "LD50": "233 mg/kg"}, {"smiles": "CCCCCC(C)OC(=O)COc1ccc(Cl)c2cccnc12", "note": "(centres undefined)", "LD50": "1100 mg/kg"}, {"smiles": "CCCCCCC(=O)O", "LD50": "7000 mg/kg"}, {"smiles": "CC1=CC(=O)CC(C)(C)C1", "LD50": "1500 mg/kg"}, {"smiles": "O=c1n(Cl)c(=O)n(Cl)c(=O)n1Cl", "LD50": "406 mg/kg"}, {"smiles": "NNC(=O)c1ccncc1", "LD50": "650 mg/kg"}, {"smiles": "CN(C)CCCCCCN(C)C", "LD50": "238 mg/kg"}, {"smiles": "C=COC(C)=O", "LD50": "2900 mg/kg"}, {"smiles": "N#Cc1ccccc1O", "LD50": "300 mg/kg"}, {"smiles": "CCOP(=S)(OCC)SCSCC", "LD50": "1 mg/kg"}, {"smiles": "CN(C)C(CSC(N)=O)CSC(N)=O", "LD50": "340 mg/kg"}, {"smiles": "CCCCOC(=O)CCCCCCCCC(=O)OCCCC", "LD50": "14900 mg/kg"}, {"smiles": "CC1(C)COCN1", "LD50": "950 mg/kg"}, {"smiles": "Nc1ccc(Cl)c(Cl)c1", "LD50": "530 mg/kg"}, {"smiles": "CNC(=S)S", "LD50": "615 mg/kg"}, {"smiles": "ClC=C(Cl)Cl", "LD50": "4920 mg/kg"}, {"smiles": "CC(C)(C)C(O)C(Oc1ccc(Cl)cc1)n1cncn1", "note": "(centres undefined)", "LD50": "689 mg/kg"}, {"smiles": "CCC(C)(CCC(C)C)C(=O)OOC(C)(C)C", "note": "(centres undefined)", "LD50": "8080 mg/kg"}, {"smiles": "CC1(C)CC(NCCCCCCNC2CC(C)(C)NC(C)(C)C2)CC(C)(C)N1", "LD50": "820 mg/kg"}, {"smiles": "O=C(O)CF", "LD50": "0.1 mg/kg"}, {"smiles": "C=CC(=O)OCC", "LD50": "800 mg/kg"}, {"smiles": "O=C=NC1CCCCC1", "LD50": "335 mg/kg"}, {"smiles": "CCCC(C)c1cccc(OC(=O)NC)c1", "note": "(centres undefined)", "LD50": "50 mg/kg"}, {"smiles": "O=C(Nc1ccc(Cl)c(Cl)c1)C1CC1", "LD50": "215 mg/kg"}, {"smiles": "c1ccc(-c2ccccn2)nc1", "LD50": "100 mg/kg"}, {"smiles": "C=CC(C)(CCC=C(C)C)OC(C)=O", "note": "(centres undefined)", "LD50": "13900 mg/kg"}, {"smiles": "Oc1c(Br)cc(Br)cc1Br", "LD50": "1490 mg/kg"}, {"smiles": "O=C(O)C=CC(=O)O", "LD50": "708 mg/kg"}, {"smiles": "C#C[C@]1(O)CC[C@H]2[C@@H]3CCc4cc(O)ccc4[C@H]3CC[C@@]21C", "LD50": "960 mg/kg"}, {"smiles": "C=COCCCC", "LD50": "10000 mg/kg"}, {"smiles": "NC(=O)c1ccccc1Cl", "LD50": "1250 mg/kg"}, {"smiles": "CCCCCCCCCCCCCCCCCCN(C)C", "LD50": "2120 mg/kg"}, {"smiles": "C[Si](C)(C)N[Si](C)(C)C", "LD50": "847 mg/kg"}, {"smiles": "CN1CCCC1=O", "LD50": "3910 mg/kg"}, {"smiles": "COc1cc(OC)nc(Oc2cccc(Oc3nc(OC)cc(OC)n3)c2C(=O)O)n1", "LD50": "2640 mg/kg"}, {"smiles": "O=C1OC(O)C(C(Cl)Cl)=C1Cl", "note": "(centres undefined)", "LD50": "128 mg/kg"}, {"smiles": "O=c1nc(O)n(Cl)c(=O)n1Cl", "LD50": "1670 mg/kg"}, {"smiles": "CCCN(CC1CC1)c1c([N+](=O)[O-])cc(C(F)(F)F)cc1[N+](=O)[O-]", "LD50": "1810 mg/kg"}, {"smiles": "CCCCCC1CCC(=O)O1", "note": "(centres undefined)", "LD50": "6600 mg/kg"}, {"smiles": "CC(C)(C#N)C(C)(C)C#N", "LD50": "27 mg/kg"}, {"smiles": "NCCCCCCN", "LD50": "750 mg/kg"}, {"smiles": "OCCCl", "LD50": "58 mg/kg"}, {"smiles": "NCCO", "LD50": "1720 mg/kg"}, {"smiles": "Cc1ccc(NC(=O)N(C)C)cc1Cl", "LD50": "5800 mg/kg"}]}]}
